This passage reports Ki results from patent US9062078B2, “Substituted 7-azabicyles and their use as orexin receptor modulators” (priority 2013, dated 2015).

pKi: −log10 of the molar value. Where two headings read alike, the source gives them in different places. Bounds are passed on as bounds.

One test concerns the target human orexin 1 receptor (Homo sapiens (Human), UniProt O43613). Kind of test: Human orexin 1 receptor radioligand binding (competitive, [3H]-SB674042, CHO cell preparations).
The target of a further test is rat orexin 1 receptor (Rattus norvegicus, UniProt P56718). Briefly: Rat orexin 1 receptor radioligand binding (competitive, [3H]-SB674042, HEK293 cell preparations).
The next test addresses human orexin 2 receptor (Homo sapiens (Human), UniProt O43614). Briefly: Human orexin 2 receptor radioligand binding (competitive, [3H]-EMPA, HEK293 cell preparations).
The mark [1] stands for this setting: human orexin 2 receptor, [3H]-EMPA competition binding, read-out: hOX2 Ki (nm).
The mark [2] stands for this setting: human orexin 1 receptor, [3H]-SB674042 competition binding, read-out: hOX1 Ki (nm).
Where [3] appears, read: rat orexin 1 receptor, [3H]-SB674042 competition binding, read-out: rOX1 Ki (nm).

human orexin 1 receptor, sequence (O43613 whole entry): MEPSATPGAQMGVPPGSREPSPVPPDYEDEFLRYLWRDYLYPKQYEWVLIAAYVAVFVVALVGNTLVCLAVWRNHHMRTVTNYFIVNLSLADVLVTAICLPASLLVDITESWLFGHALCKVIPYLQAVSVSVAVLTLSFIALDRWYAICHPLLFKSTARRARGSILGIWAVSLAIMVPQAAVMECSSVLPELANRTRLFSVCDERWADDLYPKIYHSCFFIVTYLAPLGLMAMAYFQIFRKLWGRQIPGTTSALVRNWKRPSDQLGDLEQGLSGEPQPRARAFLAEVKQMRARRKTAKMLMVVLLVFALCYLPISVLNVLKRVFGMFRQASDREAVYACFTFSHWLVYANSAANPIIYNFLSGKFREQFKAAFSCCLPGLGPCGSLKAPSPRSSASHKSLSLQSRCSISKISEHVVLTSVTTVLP
human orexin 2 receptor, sequence (O43614 whole entry): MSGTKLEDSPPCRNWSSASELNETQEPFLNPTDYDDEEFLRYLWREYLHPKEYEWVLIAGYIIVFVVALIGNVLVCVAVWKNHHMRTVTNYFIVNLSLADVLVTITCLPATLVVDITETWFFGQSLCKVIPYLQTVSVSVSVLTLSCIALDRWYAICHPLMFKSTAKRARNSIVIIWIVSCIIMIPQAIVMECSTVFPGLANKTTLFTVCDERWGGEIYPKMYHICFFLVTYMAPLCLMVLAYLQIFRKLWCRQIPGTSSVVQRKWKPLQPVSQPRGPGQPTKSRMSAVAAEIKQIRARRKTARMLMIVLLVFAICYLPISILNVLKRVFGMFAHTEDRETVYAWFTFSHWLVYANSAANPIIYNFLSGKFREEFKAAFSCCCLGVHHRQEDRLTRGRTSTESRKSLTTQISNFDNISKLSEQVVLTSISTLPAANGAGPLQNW

With `Cc1cccc(C(=O)N2[C@@H]3CC[C@H]2[C@H](Nc2cnc(C(F)(F)F)cn2)C3)c1-n1nccn1` [Example 245, (3-methyl-2-(2H-1,2,3-triazol-2-yl)phenyl)((1S,2R,4R)-2-((5-(trifluoromethyl)pyrazin-2-yl)amino)-7-azabicyclo[2.2.1]heptan-7-yl)methanone], the values for the pKi on human orexin 1 receptor (read-out: hOX1 Ki (nm)), at rat orexin 1 receptor (read-out: rOX1 Ki (nm)) and at human orexin 2 receptor (setting [1]) were 8.15, 8.00 and 6.54, respectively.
On to `Cc1ccc(C(=O)N2[C@@H]3CC[C@H]2[C@H](Nc2cnc(C(F)(F)F)cn2)C3)c(-n2ccnn2)n1` [Example 248, (6-methyl-2-(1H-1,2,3-triazol-1-yl)pyridin-3-yl)((1S,2R,4R)-2-((5-(trifluoromethyl)pyrazin-2-yl)amino)-7-azabicyclo[2.2.1]heptan-7-yl)methanone], for which the pKi at human orexin 1 receptor (setting [2]) was 6.92; at rat orexin 1 receptor (setting [3]), 6.82; on human orexin 2 receptor (setting [1]) it was less than 5.00.
For the molecule `COc1ccc(C(=O)N2[C@@H]3CC[C@H]2[C@H](Nc2cnc(C(F)(F)F)cn2)C3)c(-c2ncccn2)c1` [Example 249, (4-methoxy-2-(pyrimidin-2-yl)phenyl)((1S,2R,4R)-2-((5-(trifluoromethyl)pyrazin-2-yl)amino)-7-azabicyclo[2.2.1]heptan-7-yl)methanone], the negative logarithm of the Ki (pKi) was 7.27 on human orexin 1 receptor (read-out: hOX1 Ki (nm)), 7.24 on rat orexin 1 receptor (read-out: rOX1 Ki (nm)) and 5.25 at human orexin 2 receptor (setting [1]).
Consider `O=C(c1ccc(OC(F)F)cc1-n1nccn1)N1[C@@H]2CC[C@H]1[C@H](Nc1cnc(C(F)(F)F)cn1)C2` [Example 253, (4-(difluoromethoxy)-2-(2H-1,2,3-triazol-2-yl)phenyl)((1S,2R,4R)-2-((5-(trifluoromethyl)pyrazin-2-yl)amino)-7-azabicyclo[2.2.1]heptan-7-yl)methanone], for which the pKi was 6.82 at human orexin 1 receptor (setting [2]), 6.81 on rat orexin 1 receptor (setting [3]) and 5.02 at human orexin 2 receptor (setting [1]).
Consider `COc1ccc(-n2nccn2)c(C(=O)N2[C@@H]3CC[C@H]2[C@H](Nc2cnc(C(F)(F)F)cn2)C3)c1` [Example 255, (5-methoxy-2-(2H-1,2,3-triazol-2-yl)phenyl)((1S,2R,4R)-2-((5-(trifluoromethyl)pyrazin-2-yl)amino)-7-azabicyclo[2.2.1]heptan-7-yl)methanone], for which the results for the negative logarithm of the Ki (pKi) on human orexin 1 receptor (read-out: hOX1 Ki (nm)), at rat orexin 1 receptor (read-out: rOX1 Ki (nm)) and at human orexin 2 receptor (setting [1]) were 7.54, 7.49 and 6.58, respectively.
As for `O=C(c1c(F)cccc1-n1nccn1)N1[C@@H]2CC[C@H]1[C@H](Nc1cnc(C(F)(F)F)cn1)C2` [Example 258, (2-fluoro-6-(2H-1,2,3-triazol-2-yl)phenyl)((1S,2R,4R)-2-((5-(trifluoromethyl)pyrazin-2-yl)amino)-7-azabicyclo[2.2.1]heptan-7-yl)methanone], the figures for the pKi at human orexin 1 receptor (read-out: hOX1 Ki (nm)), at rat orexin 1 receptor (read-out: rOX1 Ki (nm)) and on human orexin 2 receptor (setting [1]) were 7.32, 7.38 and 6.16, respectively.
As to `O=C(c1cccc(F)c1-c1ncco1)N1[C@@H]2CC[C@H]1[C@H](Nc1cnc(C(F)(F)F)cn1)C2` [Example 260, (3-fluoro-2-(oxazol-2-yl)phenyl)((1S,2R,4R)-2-((5-(trifluoromethyl)pyrazin-2-yl)amino)-7-azabicyclo[2.2.1]heptan-7-yl)methanone], the pKi is 8.00 on human orexin 1 receptor (read-out: hOX1 Ki (nm)), 7.85 at rat orexin 1 receptor (read-out: rOX1 Ki (nm)) and 6.28 at human orexin 2 receptor (setting [1]).
Consider `O=C(c1cccc(F)c1-c1cccnn1)N1[C@@H]2CC[C@H]1[C@H](Nc1cnc(C(F)(F)F)cn1)C2` [Example 262, (3-fluoro-2-(pyridazin-3-yl)phenyl)((1S,2R,4R)-2-((5-(trifluoromethyl)pyrazin-2-yl)amino)-7-azabicyclo[2.2.1]heptan-7-yl)methanone], for which the pKi on human orexin 1 receptor (setting [2]) is 6.76; at rat orexin 1 receptor (setting [3]) it was 6.97; at human orexin 2 receptor (setting [1]) it was 5.38.
Consider `Cc1cccc(C(=O)N2[C@@H]3CC[C@H]2[C@H](Nc2cnc(C(F)(F)F)cn2)C3)c1-c1cccnn1` [Example 263, (3-methyl-2-(pyridazin-3-yl)phenyl)((1S,2R,4R)-2-((5-(trifluoromethyl)pyrazin-2-yl)amino)-7-azabicyclo[2.2.1]heptan-7-yl)methanone], for which the pKi on human orexin 1 receptor (read-out: hOX1 Ki (nm)) was 7.39; on rat orexin 1 receptor (read-out: rOX1 Ki (nm)) it was 7.36; at human orexin 2 receptor (setting [1]), 5.96.
In the case of `O=C(c1ccc(F)cc1-c1ncccn1)N1[C@@H]2CC[C@H]1[C@H](Nc1cnc(C(F)(F)F)cn1)C2` [Example 267, (4-fluoro-2-(pyrimidin-2-yl)phenyl)((1S,2R,4R)-2-((5-(trifluoromethyl)pyrazin-2-yl)amino)-7-azabicyclo[2.2.1]heptan-7-yl)methanone], the pKi at human orexin 1 receptor (read-out: hOX1 Ki (nm)) was 7.21; at rat orexin 1 receptor (read-out: rOX1 Ki (nm)) it was 7.48; at human orexin 2 receptor (setting [1]) it was 5.77.
Take `O=C(c1cccc(F)c1-n1nccn1)N1[C@@H]2CC[C@H]1[C@H](Nc1ncc(C(F)(F)F)cn1)C2` [Example 269, (3-fluoro-2-(2H-1,2,3-triazol-2-yl)phenyl)((1S,2R,4R)-2-((5-(trifluoromethyl)pyrimidin-2-yl)amino)-7-azabicyclo[2.2.1]heptan-7-yl)methanone]: the figures for the pKi at human orexin 1 receptor (setting [2]), on rat orexin 1 receptor (read-out: rOX1 Ki (nm)) and on human orexin 2 receptor (setting [1]) were 6.95, 7.32 and 5.77, respectively.
As for `O=C(c1cccc(F)c1-c1ncccn1)N1[C@@H]2CC[C@H]1[C@H](Nc1ncc(C(F)(F)F)cn1)C2` [Example 271, (3-fluoro-2-(pyrimidin-2-yl)phenyl)((1S,2R,4R)-2-((5-(trifluoromethyl)pyrimidin-2-yl)amino)-7-azabicyclo[2.2.1]heptan-7-yl)methanone], the negative logarithm of the Ki (pKi) at human orexin 1 receptor (read-out: hOX1 Ki (nm)) is 7.38; at rat orexin 1 receptor (read-out: rOX1 Ki (nm)), 7.39; on human orexin 2 receptor (setting [1]), 5.64.
The like results for `Cc1cccc(C(=O)N2[C@@H]3CC[C@H]2[C@H](Nc2ncc(C(F)(F)F)cn2)C3)c1-n1nccn1` [Example 272, (3-methyl-2-(2H-1,2,3-triazol-2-yl)phenyl)((1S,2R,4R)-2-((5-(trifluoromethyl)pyrimidin-2-yl)amino)-7-azabicyclo[2.2.1]heptan-7-yl)methanone] were, in that order, 7.59, 7.68 and 6.13.
Turning to `Cc1cccc(C(=O)N2[C@@H]3CC[C@H]2[C@H](Nc2ncc(C(F)(F)F)cn2)C3)c1I` [Example 276, (2-iodo-3-methylphenyl)((1S,2R,4R)-2-((5-(trifluoromethyl)pyrimidin-2-yl)amino)-7-azabicyclo[2.2.1]heptan-7-yl)methanone], the values for the pKi on human orexin 1 receptor (read-out: hOX1 Ki (nm)), at rat orexin 1 receptor (setting [3]) and at human orexin 2 receptor (setting [1]) were 7.01, 6.88 and 5.60, respectively.
Take `Cc1cnc(N[C@@H]2C[C@H]3CC[C@@H]2N3C(=O)c2cccc(F)c2-c2ncccn2)cn1` [Example 278, (3-fluoro-2-(pyrimidin-2-yl)phenyl)((1S,2R,4R)-2-((5-methylpyrazin-2-yl)amino)-7-azabicyclo[2.2.1]heptan-7-yl)methanone]: the negative logarithm of the Ki (pKi) is 7.11 on human orexin 1 receptor (read-out: hOX1 Ki (nm)), 7.06 on rat orexin 1 receptor (read-out: rOX1 Ki (nm)) and 6.03 at human orexin 2 receptor (setting [1]).
As to `O=C(c1cccc(F)c1-c1ncccn1)N1[C@@H]2CC[C@H]1[C@H](Nc1ccc(C(F)(F)F)cn1)C2` [Example 279, (3-fluoro-2-(pyrimidin-2-yl)phenyl)((1S,2R,4R)-2-((5-(trifluoromethyl)pyridin-2-yl)amino)-7-azabicyclo[2.2.1]heptan-7-yl)methanone], the pKi was 8.10 at human orexin 1 receptor (hOX1 Ki (nm)), 7.82 on rat orexin 1 receptor (rOX1 Ki (nm)) and 5.96 on human orexin 2 receptor (hOX2 Ki (nm)).
With `O=C(c1ccc(F)cc1-c1ncccn1)N1[C@@H]2CC[C@H]1[C@H](Nc1ccc(C(F)(F)F)cn1)C2` [Example 280, (4-fluoro-2-(pyrimidin-2-yl)phenyl)((1S,2R,4R)-2-((5-(trifluoromethyl)pyridin-2-yl)amino)-7-azabicyclo[2.2.1]heptan-7-yl)methanone], the pKi on human orexin 1 receptor (read-out: hOX1 Ki (nm)) is 7.43; on rat orexin 1 receptor (read-out: rOX1 Ki (nm)), 7.41; at human orexin 2 receptor (setting [1]), 5.89.
Turning to `O=C(c1cccc(F)c1-c1ncco1)N1[C@@H]2CC[C@H]1[C@H](Nc1ncc(C(F)(F)F)cn1)C2` [Example 284, (3-fluoro-2-(oxazol-2-yl)phenyl)((1S,2R,4R)-2-((5-(trifluoromethyl)pyrimidin-2-yl)amino)-7-azabicyclo[2.2.1]heptan-7-yl)methanone], the results for the pKi at human orexin 1 receptor (read-out: hOX1 Ki (nm)), at rat orexin 1 receptor (read-out: rOX1 Ki (nm)) and on human orexin 2 receptor (setting [1]) were 7.57, 7.54 and 5.77, respectively.
For `O=C(c1ncccc1-n1nccn1)N1[C@@H]2CC[C@H]1[C@H](Nc1cnc(C(F)(F)F)cn1)C2` [Example 288, (3-(2H-1,2,3-triazol-2-yl)pyridin-2-yl)((1S,2R,4R)-2-((5-(trifluoromethyl)pyrazin-2-yl)amino)-7-azabicyclo[2.2.1]heptan-7-yl)methanone], the figures for the pKi at human orexin 1 receptor (setting [2]), on rat orexin 1 receptor (read-out: rOX1 Ki (nm)) and at human orexin 2 receptor (setting [1]) were 6.89, 7.03 and 5.72, respectively.

One may read the pKi as −log10 of the Ki, conventionally taken in molar units.
